In PMC12390684 (Viruses, 2025):
pIC50: −log10 of the molar value. Like-named read-outs stand apart in the source and are kept apart here.

Legend:
[1] = target: IN-GCN2 interaction (6xHis-IN / GST-GCN2) (UniProt P04585+Q9P2K8); assay: biochemical; type: binding, HIV-1 IN; human GCN2; conditions: for pIC50: SAR study, fresh dilutions from powder, at least three independent experiments; for IN-GCN2 interaction (%): screen, single dose 100 µM, single replicate, residual AlphaLISA signal normalized to DMSO control
[2] = Cytotoxicity (CellTiter 96 AQueous); type: cell-based; conditions: human, 24 h, read-out: CC50

Chain of IN-GCN2 interaction (6xHis-IN / GST-GCN2) (Q9P2K8 192-1024, other chains not shown): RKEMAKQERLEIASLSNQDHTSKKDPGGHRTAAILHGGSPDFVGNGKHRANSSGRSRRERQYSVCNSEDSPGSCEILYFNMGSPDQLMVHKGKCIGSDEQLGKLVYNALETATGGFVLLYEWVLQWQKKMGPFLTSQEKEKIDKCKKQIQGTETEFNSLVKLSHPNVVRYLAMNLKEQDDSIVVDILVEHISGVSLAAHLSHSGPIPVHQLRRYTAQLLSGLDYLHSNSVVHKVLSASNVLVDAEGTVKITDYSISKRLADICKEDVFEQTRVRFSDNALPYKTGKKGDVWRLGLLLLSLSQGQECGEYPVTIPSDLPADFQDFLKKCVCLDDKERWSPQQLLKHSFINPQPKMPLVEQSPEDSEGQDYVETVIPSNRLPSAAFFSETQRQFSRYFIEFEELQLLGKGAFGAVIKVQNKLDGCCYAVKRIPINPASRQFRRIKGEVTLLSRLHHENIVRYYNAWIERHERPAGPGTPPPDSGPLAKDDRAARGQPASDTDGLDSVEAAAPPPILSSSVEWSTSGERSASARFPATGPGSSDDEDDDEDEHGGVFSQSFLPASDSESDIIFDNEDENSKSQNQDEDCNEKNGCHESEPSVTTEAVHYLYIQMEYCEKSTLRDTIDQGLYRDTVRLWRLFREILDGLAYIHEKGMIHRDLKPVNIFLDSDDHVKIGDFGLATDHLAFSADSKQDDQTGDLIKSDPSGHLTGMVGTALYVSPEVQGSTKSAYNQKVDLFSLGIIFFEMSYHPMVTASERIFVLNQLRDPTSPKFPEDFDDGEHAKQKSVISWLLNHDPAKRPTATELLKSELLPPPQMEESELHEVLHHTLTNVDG

**Q.** With `CN(C)CCCCNc1ccc(NCCCCN(C)C)c2c1C(=O)c1c(O)ccc(O)c1C2=O` [Compound 2j] as the compound, how does the pIC50 ([1]; read-out: IC50, inhibition of IN-GCN2 interaction) read?
**A.** 4.94

**Q.** And the CC50 at 24 h ([2]; P4 MAGI CCR5+ cells)?
**A.** > 5 µM

**Q.** With `CC[C@@]1(O)C[C@H](O[C@H]2C[C@H](N(C)C)[C@H](O[C@H]3C[C@H](O)[C@H](O[C@H]4CCC(=O)[C@H](C)O4)[C@H](C)O3)[C@H](C)O2)c2c(cc3c(c2O)C(=O)c2c(O)cccc2C3=O)[C@H]1C(=O)OC` [Compound 1k] as the compound, how does the “IN-GCN2 interaction (%)” value [1] read?
**A.** 28.46%

**Q.** What about the CC50 [2] of the same compound?
**A.** 0.114 µM

**Q.** With `CCN(CC)C1CC(OC2CC(O)(C(=O)CO)Cc3c(O)c4c(c(O)c32)C(=O)c2c(OC)cccc2C4=O)OC(C)C1O` (stereo not drawn) [Compound 1n] as the compound, how does the pIC50 ([1]; IC50, inhibition of IN-GCN2 interaction) read?
**A.** 4.53

**Q.** And the CC50 [2]?
**A.** 0.512 µM

**Q.** Which “IN-GCN2 interaction (%)” value [1] does the source give for `CO[C@H]1[C@@H](O)[C@@H](C)O[C@H](O[C@H]2[C@H](Oc3cccc4c(O)c5c(=O)oc6ccc(C)c7c(=O)oc(c34)c5c67)O[C@H](C)[C@H](O)[C@@H]2O)[C@@H]1O` [NSC5159] here?
**A.** 121.88%

**Q.** For `CCN1C[C@]2(COC)[C@H](O)C[C@H](OC)[C@@]34[C@@H]5C[C@@]6(O)[C@H](OC(=O)c7ccccc7)[C@@H]5[C@@](OC(C)=O)([C@@H]([C@H](OC)[C@H]23)[C@@H]14)[C@@H](O)[C@@H]6OC` [NSC56464], which “IN-GCN2 interaction (%)” value [1] is on record?
**A.** 148.00%

**Q.** With `COc1ccc(C[C@@H]2NC[C@@H](O)[C@@H]2OC(C)=O)cc1.Cl` [NSC147340] as the compound, how does the “IN-GCN2 interaction (%)” value [1] read?
**A.** 88.95%

**Q.** For `CCc1c2c(nc3ccc(OC(=O)N4CCC(N5CCCCC5)CC4)cc13)-c1cc3c(c(=O)n1C2)COC(=O)[C@]3(O)CC` [NSC616348], which “IN-GCN2 interaction (%)” value [1] is on record?
**A.** 97.94%

**Q.** With `N=C(N)CCNC(=O)C1CCC(N)=N1` (stereo not drawn) [NSC72942] as the compound, how does the “IN-GCN2 interaction (%)” value [1] read?
**A.** 100.21%

**Q.** Which “IN-GCN2 interaction (%)” value [1] does the source give for `CO[C@@H]1[C@H](O)C[C@@H](O[C@H]2[C@@H](C)O[C@@H](Oc3cc(O)c4c(O)c5c(cc4c3)C[C@@H]([C@H](OC)C(=O)[C@@H](O)[C@@H](C)O)[C@H](O[C@H]3C[C@@H](O[C@H]4C[C@@H](O[C@H]6C[C@](C)(O)[C@@H](OC(=O)C(C)C)[C@H](C)O6)[C@H](O)[C@@H](C)O4)[C@H](O)[C@@H](C)O3)C5=O)C[C@H]2OC(C)=O)O[C@@H]1C` [NSC38270] here?
**A.** 113.18%

**Q.** With `CC1=C[C@H](O)[C@@H](O)[C@]2(C)[C@H]3[C@@]4(O)OC[C@@]35[C@@H](C[C@@H]12)OC(=O)C[C@H]5[C@@H](C)[C@H]4O` [NSC79404] as the compound, how does the “IN-GCN2 interaction (%)” value [1] read?
**A.** 87.44%

**Q.** With `C=C1C(=O)O[C@H]2[C@H]1[C@H](OC(=O)/C(C)=C\C)C[C@]1(CO1)[C@@H]1[C@H](OC(C)=O)C=C(C)[C@]21O` [NSC104943] as the compound, how does the “IN-GCN2 interaction (%)” value [1] read?
**A.** 118.84%

**Q.** With `O=c1[nH]cnc2c([C@@H]3O[C@H](CO)[C@@H](O)[C@H]3O)[nH]nc12` [NSC106486] as the compound, how does the “IN-GCN2 interaction (%)” value [1] read?
**A.** 77.11%

**Q.** Which “IN-GCN2 interaction (%)” value [1] does the source give for `COc1cc2c(c3c1c(=O)c1ccccc1n3C)C=CC(C)(C)O2` [NSC403169] here?
**A.** 89.07%

**Q.** Which “IN-GCN2 interaction (%)” value [1] does the source give for `C=C1C(=O)OC2CCN3CC=C(COC(=O)C(C)(O)C4(CO4)C1C)C23` (stereo not drawn) [NSC129230] here?
**A.** 110.22%

**Q.** Which “effect on IN-GCN2 interaction in dose-response, in words” value ([1]; dose-response assessment) does the source give for `CC(=O)O[C@@H]1C[C@H]2O[C@@H]3C=C(C)CC[C@]3(C)[C@]1(C)[C@]21CO1` [NSC267023] here?
**A.** inactive

**Q.** With `CC(=O)O[C@H]1C(=O)[C@@]2(C)[C@H]([C@H](OC(=O)c3ccccc3)[C@]3(O)C[C@H](O)C(C)=C1C3(C)C)[C@]1(OC(C)=O)CO[C@@H]1C[C@@H]2O` [NSC330753] as the compound, how does the “IN-GCN2 interaction (%)” value [1] read?
**A.** 109.90%

**Q.** Which “IN-GCN2 interaction (%)” value [1] does the source give for `Cc1c(N)nc([C@H](CC(N)=O)NC[C@H](N)C(N)=O)nc1C(=O)N[C@H](C(=O)N[C@H](C)[C@@H](O)[C@H](C)C(=O)N[C@H](C(=O)NCCc1nc(-c2nc(C(=O)NCCCN[C@@H](C)c3ccccc3)cs2)cs1)[C@@H](C)O)[C@@H](O[C@@H]1O[C@@H](CO)[C@@H](O)[C@H](O)[C@@H]1O[C@H]1O[C@H](CO)[C@@H](O)[C@H](OC(N)=O)[C@@H]1O)c1cnc[nH]1` [NSC276382] here?
**A.** 37.70%

**Q.** With `C/C(=C\CC1=C(O)c2ccccc2C(=O)C1=O)CO` [NSC24872] as the compound, how does the “IN-GCN2 interaction (%)” value [1] read?
**A.** 132.67%

**Q.** Which “IN-GCN2 interaction (%)” value [1] does the source give for `COC1[C@H](O)[C@@H](O)C(O)[C@H](O)[C@H]1O` (stereo partly drawn) [NSC26254] here?
**A.** 90.47%

**Q.** Which “IN-GCN2 interaction (%)” value [1] does the source give for `COc1cc(O)c(C(=O)/C=C/c2ccccc2)c(OC)c1` [NSC51351] here?
**A.** 51.53%

**Q.** With `COc1c(OC)c(OC)c2c3c(cc4ccccc42)NC(=O)C(=O)c13` [NSC785151] as the compound, how does the “IN-GCN2 interaction (%)” value [1] read?
**A.** 48.18%

**Q.** Which “IN-GCN2 interaction (%)” value [1] does the source give for `C/C=C/C(=O)O` [NSC8751] here?
**A.** 85.97%

**Q.** For `CC(=O)O[C@@H]1C[C@H]2C(C)(C)C(=O)C=C[C@]2(C)[C@H]2CC[C@@]3(C)[C@H](c4ccoc4)OC(=O)[C@H]4O[C@]43[C@@]21C` [NSC113497], which “IN-GCN2 interaction (%)” value [1] is on record?
**A.** 59.74%

**Q.** With `COC1=C2C[C@@H](C)C[C@H](OC)[C@H](O)[C@@H](C)/C=C(\C)[C@H](OC(N)=O)[C@@H](OC)/C=C\C=C(/C)C(=O)NC(=CC1=O)C2=O` [NSC122750] as the compound, how does the “IN-GCN2 interaction (%)” value [1] read?
**A.** 116.21%
